Experimental data: publication PMC10504751, “Chalcone/1,3,4-Oxadiazole/Benzimidazole hybrids as novel anti-proliferative agents inducing apoptosis and inhibiting EGFR & BRAFV^600E” (BMC Chemistry, 2023)
Where two headings read alike, the source gives them in different places.

What was measured:
RXF 393 = assay: NCI one-dose SRB anti-proliferative screen; type: cell-based, human; details: Homo sapiens, read-out: Cell growth inhibition %
Protocol: (§1) The twenty-four synthesized compounds were submitted to the National Cancer Institute (NCI), USA. Eighteen hybrids 7a-h, 7k-r, 7u, and 7v were selected by NCI for one-dose assessment of their anti-proliferative activities at 10 µM dose by Sulforhodamine B colorimetric assay. The assessment was performed in 60 cell lines derived from nine tumor subpanels, comprising lung, leukemia, melanoma, colon, renal, CNS, prostate, breast, and ovarian cancer cell lines.
(§2) The methodology of the NCI anti-proliferative screening has been described in details elsewhere (http://www.dtp.nci.nih.gov).

HCT-116 = assay: NCI one-dose SRB anti-proliferative screen; type: cell-based, human; details: for inhibition at 10 µM: Homo sapiens, read-out: Cell growth inhibition %
Protocol: as §1, §2

K-562 = assay: NCI one-dose SRB anti-proliferative screen; type: cell-based, human; details: Homo sapiens, K562, read-out: Cell growth inhibition %
Protocol: as §1, §2

MOLT-4 = assay: NCI one-dose SRB anti-proliferative screen; type: cell-based, human; details: Homo sapiens, read-out: Cell growth inhibition %
Protocol: as §1, §2

T-47D = assay: NCI one-dose SRB anti-proliferative screen; type: cell-based, human; details: for inhibition at 10 µM: Homo sapiens, T47D, read-out: Cell growth inhibition %
Protocol: as §1, §2

MCF-7 = assay: Propidium iodide anti-proliferative assay; type: cell-based; details: Homo sapiens, MCF7; 48 h incubation; read-out: IC50 ± SEM MCF-7
Protocol: (§3) The propidium iodide (PI) tests^31, 32 were further used for assessment of the IC50 of all synthesized compounds and compared to Doxorubicin as a positive control against four cancer cell lines; pancreatic cancer cell line (Panc-1), epithelial line cancer cell (A-549), breast cancer cell line (MCF-7), and colon cancer cell line (HT-29).
(§4) Using the propidium iodide fluorescence assay with doxorubicin as the reference drug, IC50 of the 24 compounds 7a-x, was carried out according to a previously reported procedure^31, 32 against a panel of four human cancer cell lines; epithelial cancer cell line (A-549), breast cancer cell line (MCF-7), colon cancer cell line (HT-29) and pancreas cancer cell line (Panc-1). Compounds 7a-x were incubated with cancer cells for 2 days at different concentrations. See Appendix A.
(§5) To explore the antiproliferative potential of compounds propidium iodide fluorescence assay was performed using different cell lines (melanoma cancer cell line LOX-IMVI, pancreatic cancer cell line (Panc-1), epithelial line cancer cell (A-549), breast cancer cell line (MCF-7), and colon cancer cell line (HT-29). To calculate the total nuclear DNA, a fluorescent dye (propidium iodide, PI) is used which can attach to the DNA,^9,^10 thus offering a quick and precise technique. PI cannot pass through the cell membrane and its signal intensity can be considered as directly proportional to the quantity of cellular DNA. Cells whose cell membranes are damaged or have changed permeability are counted as dead ones. The assay was performed by seeding the cells of different cancer cell lines at a density of 3000-7500 cells/well (in 200µl medium) in culture plates followed by incubation for 24h at 37 °C in humidified 5% CO2/95% air atmospheric conditions. The medium was removed; the compounds were added to the plates at 10 µM concentrations (in 0.1% DMSO) in triplicates, followed by incubation for 48 h. DMSO (0.1%) was used as control. After incubation, medium was removed followed by the addition of PI (25 µl, 50µg/mL in water/medium) to each well of the plates. At -80 °C, the plates were allowed to freeze for 24 h, followed by thawing at 25 °C. A fluorometer (Polar-Star BMG Tech) was used to record the readings at excitation and emission wavelengths of 530 and 620 nm for each well. The percentage cytotoxicity of compounds was calculated using the following formula:
(§6) Where ATC= Absorbance of treated cells and AC= Absorbance of control. […]

Panc-1 = assay: Propidium iodide anti-proliferative assay; type: cell-based; details: Homo sapiens, 48 h incubation, read-out: IC50 ± SEM Panc-1
Protocol: as §3, §4, §5, §6

A-549 = assay: Propidium iodide anti-proliferative assay; type: cell-based; details: Homo sapiens, A549; 48 h incubation; read-out: IC50 ± SEM A-549
Protocol: as §3, §4, §5, §6

HT-29 = assay: Propidium iodide anti-proliferative assay; type: cell-based; details: Homo sapiens, 48 h incubation, read-out: IC50 ± SEM HT-29
Protocol: as §3, §4, §5, §6

[1] = MTT cell viability assay in normal cells; type: cell-based; details: human, MCF-10A normal mammary epithelial cells
Protocol: To check the safety of prepared compounds and evaluate their selectivity towards tumor cells over normal ones, the toxicity of compounds 7a-x were evaluated by 3-(4,5-Dimethylthiazole-2-yl)-2,5-diphenyltetrazol (MTT) assay on the normal human mammary epithelial cell line (MCF-10 A). The human mammary epithelial cell lines were incubated for four days with a concentration of 50 µM of compounds 7a-x.
MTT assay was done to determine the effect of the synthesized compounds on the viability of mammary epithelial cells (MCF-10 A). Compounds 7a-x were incubated with MCF-10 A cells for 4 days at 50 µM concentration, and the viability of cells was determined. See Appendix A.
MTT assay was carried out to study the effect of compounds on mammary epithelial cells (MCF-10A).^7, ^8 The medium in which cells were propagated contained Dulbecco's modified Eagle's medium (DMEM)/ Ham's F-12 medium (1:1) supplemented with epidermal growth factor (20 ng/mL), hydrocortisone (500 ng/mL), insulin (10 μg/mL), 2 mM glutamine and 10% foetal calf serum. After every 2-3 days, the cells were passaged using trypsin ethylenediamine tetra acetic acid (EDTA). The cells were seeded at a density of 10^4 cells mL^-1 in flat-bottomed culture plates containing 96 wells each. After 24 h, medium was removed from the plates and the compounds in (in 0.1% DMSO) were added (in 200 μL medium to yield a final concentration of 0.1% v/v) to the wells of plates. A single compound was designated with four wells followed by incubation of plates for 96h at 37°C. After incubation, medium was removed completely from the plates followed by addition of MTT (0.4 mg/mL in medium) to each well and subsequent incubation of plates for 3h. MTT (along with the medium) was removed and DMSO (150μL) was added to each well of the culture plates, followed by vortexing and subsequent measurement of absorbance (at 540 nm) using microplate reader.

[2] = RXF 393, Renal cancer, NCI one dose
[3] = HCT-116, Colon cancer, NCI one dose
[4] = T-47D, Breast cancer, NCI one dose
[5] = RXF 393 (Renal Cancer), NCI one dose 10 µM
[6] = HCT-116 (Colon Cancer), NCI one dose 10 µM
[7] = K-562 (Leukemia), NCI one dose 10 µM
[8] = MOLT-4 (Leukemia), NCI one dose 10 µM
[9] = T-47D (Breast Cancer), NCI one dose 10 µM

Structure (SMILES) | inhibition at 10 µM (RXF 393; [2]) [%] | inhibition at 10 µM (HCT-116; [3]) [%] | inhibition at 10 µM (K-562; K-562, Leukemia, NCI one dose) [%] | inhibition at 10 µM (MOLT-4; MOLT-4, Leukemia, NCI one dose) [%] | inhibition at 10 µM (T-47D; [4]) [%] | IC50 (MCF-7) [µM] | IC50 (Panc-1) [µM] | IC50 (A-549) [µM] | IC50 (HT-29) [µM] | viability at 96 h, 50 µM [1] [%] | Growth Percent (T-47D; T-47D (Breast Cancer), 10 µM one dose) [%] | inhibition at 10 µM (RXF 393; [5]) [%] | inhibition at 10 µM (HCT-116; [6]) [%] | inhibition at 10 µM (K-562; [7]) [%] | inhibition at 10 µM (MOLT-4; [8]) [%] | inhibition at 10 µM (T-47D; [9]) [%] | Growth Percent (HCT-116; HCT-116 (Colon Cancer), 10 µM one dose) [%]
O=C(CSc1nnc(-c2ccc3[nH]c(-c4ccccc4)nc3c2)o1)Nc1ccc(C(=O)/C=C/c2ccccc2)cc1 [Compound 7a, 2-{5-[2-Phenyl-1 H-benzo[d]imidazol-5-yl]-1,3,4-oxadiazol-2-ylthio}-N-{4-[(E)-3-phenylacryloyl]phenyl}acetamide] | 0 | 3.03 | 0 | 6.84 | 1.45 | 9.2 ± 1.1 | 10.4 ± 1.3 | 9.9 ± 1.1 | 11.2 ± 1.4 | 91 | – | – | – | – | – | – | –
O=C(CSc1nnc(-c2ccc3[nH]c(-c4ccccc4)nc3c2)o1)Nc1ccc(C(=O)/C=C/c2ccc(Cl)cc2)cc1 [Compound 7b, 2-{5-[2-Phenyl-1 H-benzo[d]imidazol-5-yl]-1,3,4-oxadiazol-2-ylthio}-N-{4-[(E)-3-(4-chlorophenyl)acryloyl]phenyl}acetamide] | 0 | 8.66 | 0 | 6.55 | 12.3 | 7.9 ± 0.8 | 8.4 ± 1 | 8.2 ± 0.9 | 9.1 ± 1.1 | 88 | – | – | – | – | – | – | –
COc1ccc(/C=C/C(=O)c2ccc(NC(=O)CSc3nnc(-c4ccc5[nH]c(-c6ccccc6)nc5c4)o3)cc2)cc1 [Compound 7c, 2-{5-[2-Phenyl-1 H-benzo[d]imidazol-5-yl]-1,3,4-oxadiazol-2-ylthio}-N-{4-[(E)-3-(4-methoxyphenyl)acryloyl]phenyl}acetamide] | 8.38 | 15.1 | 3.83 | 23.9 | 47.6 | 4.15 ± 0.5 | 5.2 ± 0.4 | 4.7 ± 0.5 | 5.5 ± 0.5 | 87 | 52.35 | – | – | – | – | – | –
COc1ccc(/C=C/C(=O)c2ccc(NC(=O)CSc3nnc(-c4ccc5[nH]c(-c6ccccc6)nc5c4)o3)cc2)cc1OC [Compound 7d, 2-{5-[2-Phenyl-1 H-benzo[d]imidazol-5-yl]-1,3,4-oxadiazol-2-ylthio}-N-{4-[(E)-3-(3,4-dimethoxyphenyl)acryloyl]phenyl}acetamide] | 0 | 6.47 | 0 | 7.24 | 2.51 | 8.9 ± 1.1 | 10.3 ± 1.3 | 9.7 ± 1.1 | 11.1 ± 1.4 | 89 | – | – | – | – | – | – | –
O=C(CSc1nnc(-c2ccc3[nH]c(-c4ccc(Cl)cc4)nc3c2)o1)Nc1ccc(C(=O)/C=C/c2ccccc2)cc1 [Compound 7f, 2-{5-[2-(4-Chlorophenyl)-1 H-benzo[d]imidazol-5-yl]-1,3,4-oxadiazol-2-ylthio}-N-{4-[(E)-3-phenylacryloyl]phenyl}acetamide] | – | – | – | – | – | 2.05 ± 0.5 | 2.4 ± 0.6 | 2.15 ± 0.5 | 2.7 ± 0.5 | 87 | – | 0 | 0 | 8.26 | 9 | 0 | –
COc1ccc(-c2nc3cc(-c4nnc(SCC(=O)Nc5ccc(C(=O)/C=C/c6cc(OC)c(OC)c(OC)c6)cc5)o4)ccc3[nH]2)cc1 [Compound 7o, 2-{5-[2-(4-Methoxyphenyl)-1 H-benzo[d]imidazol-5-yl]-1,3,4-oxadiazol-2-ylthio}-N-{4-[(E)-3-(3,4,5-trimethoxyphenyl)acryloyl]phenyl}acetamide] | 0 | 0 | 8.26 | 9 | 0 | 7.1 ± 0.6 | 8.2 ± 1.2 | 7.6 ± 0.3 | 8.6 ± 0.4 | 89 | – | – | – | – | – | – | 50.04
COc1ccc(/C=C/C(=O)c2ccc(NC(=O)CSc3nnc(-c4ccc5[nH]c(-c6ccc(OC)c(OC)c6)nc5c4)o3)cc2)cc1 [Compound 7r, 2-{5-[2-(3,4-Dimethoxyphenyl)-1 H-benzo[d]imidazol-5-yl]-1,3,4-oxadiazol-2-ylthio}-N-{4-[(E)-3-(4-methoxyphenyl)acryloyl]phenyl}acetamide] | – | – | – | – | – | 3.1 ± 0.5 | 3.9 ± 0.5 | 3.6 ± 0.5 | 4.2 ± 0.5 | 91 | – | 0 | 3.79 | 21.9 | 34.5 | 28.9 | –
COc1cc(-c2nc3cc(-c4nnc(SCC(=O)Nc5ccc(C(=O)/C=C/c6ccccc6)cc5)o4)ccc3[nH]2)cc(OC)c1OC [Compound 7u, 2-{5-[2-(3,4,5-Trimethoxyphenyl)-1 H-benzo[d]imidazol-5-yl]-1,3,4-oxadiazol-2-ylthio}-N-{4-[(E)-3-phenylacryloyl]phenyl}acetamide] | – | – | – | – | – | 2.1 ± 0.08 | 2.4 ± 0.2 | 2.25 ± 0.5 | 2.7 ± 0.5 | 90 | – | 0 | 26.5 | 14.9 | 21.8 | 14.8 | –
